From patent US9718817B2, “Aryl and heteroaryl ether compounds as ROR gamma modulators” (Glenmark Pharmaceuticals S.A., priority 2014, dated 2017)

Biological target: T1, GST-tagged ROR gamma ligand binding domain (LBD) (Homo sapiens, UniProt P51449)
T1 construct: purchased Invitrogen
T1 sequence (P51449 269-508 limits assumed): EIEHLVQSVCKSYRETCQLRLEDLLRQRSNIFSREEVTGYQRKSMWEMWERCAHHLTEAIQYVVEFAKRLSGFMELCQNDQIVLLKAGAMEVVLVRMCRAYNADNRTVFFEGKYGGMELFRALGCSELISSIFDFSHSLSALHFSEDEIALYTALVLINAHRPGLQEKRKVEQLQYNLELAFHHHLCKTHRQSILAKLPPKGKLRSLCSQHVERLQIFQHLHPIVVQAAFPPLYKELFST
Assay: TR-FRET assay for ROR gamma (LanthaScreen co-activator peptide recruitment)
Type: biochemical
Settings: for inhibition at 1 µM: compound 1 μM; for inhibition at 1 µM / inhibition at 10 µM: TR-FRET ratio 520/495, percent of control; for inhibition at 10 µM: compound 10 μM; for IC50: class symbols, from dose response curve
Description: The compounds described herein were screened for ROR gamma modulator activity using the TR-FRET assay by Lantha Screen as described in JBC 2011, 286, 26: 22707-10; and Drug Metabolism and Disposition 2009, 37, 10: 2069-78.
The assay is based on the principle that binding of the agonist to the ROR gamma causes a conformational change around helix 12 in the ligand binding domain, resulting in higher affinity for the co-activator peptide. ROR gamma being constitutively active, the Fluorescein-D22 co-activator peptide used in the assay is recruited in the absence of a ligand. Binding of the co-activator peptide, causes an increase in the TR-FRET signal while binding of an antagonist decreases the recruitment of the co-activator peptide, causing a decrease in the TR-FRET signal compared to control with no compound. The assay was performed using a two-step procedure, pre-incubation step with the compound followed by the detection step on addition of the anti-GST tagged terbium (Tb) and fluorescein tagged fluorophores as the acceptor.
Test compounds or reference compounds such as T0901317 (Calbiochem) were dissolved in dimethylsulfoxide (DMSO) to prepare 10.0 mM stock solutions and diluted to the desired concentration. The final concentration of DMSO in the reaction was 4% (v/v). The assay mixture was prepared by mixing 10 nM of the GST-tagged ROR gamma ligand binding domain (LBD) in the assay buffer containing 25 mM HEPES (pH 7.4), 100 mM NaCl, 5 mM DTT and 0.01% BSA with or without the desired concentration of the compound. The reaction was incubated at 22° C. for 1 hour. The pre-incubation step was terminated by addition of the detection mixture containing 300 nM Fluorescein-D22 co-activator peptide and 10 nM lantha screen Tb-anti GST antibody into the reaction mixture. After shaking for 5 minutes the reaction was further incubated for 1 hour at room temperature and read at 4° C. on an Infinite F500 reader as per the kit instructions (Invitrogen). The inhibition of test compound was calculated based on the TR-FRET ratio of 520/495. The activity was calculated as a percent of control reaction. IC50 values were calculated from dose response curve by nonlinear regression analysis using GraphPad Prism software.
Percentage inhibition at concentrations of 1.0 μM and 10.0 μM are given in the table along with IC50 (nM) details for selected examples.

| SMILES | inhibition at 1 µM [%] | inhibition at 10 µM [%] | IC50 [nM] |
| --- | --- | --- | --- |
| CCS(=O)(=O)c1ccc(CC(=O)Nc2ccc(OC(C)(C)c3ccc(F)c(F)c3)cc2)cc1 [Example 1, N-(4-{[2-(3,4-Difluorophenyl)propan-2-yl]oxy}phenyl)-2-[4(ethylsulfonyl)phenyl]acetamide] | 47.7 | 74.3 | – |
| CCS(=O)(=O)c1ccc(CC(=O)Nc2ccc(OC(C)(C)c3ccc(F)cc3F)cc2)cc1 [Example 2, N-(4-{[2-(2,4-Difluorophenyl)propan-2-yl]oxy}phenyl)-2-[4-(ethylsulfonyl)phenyl]acetamide] | 66.9 | 78 | – |
| CCS(=O)(=O)c1ccc(CC(=O)Nc2ccc(OC(C)(C)c3ccc(Cl)cc3Cl)cc2)cc1 [Example 3, N-(4-{[2-(2,4-Dichlorophenyl)propan-2-yl]oxy}phenyl)-2-[4-(ethylsulfonyl)phenyl]acetamide] | 81.3 | 83.4 | < 50 |
| CCS(=O)(=O)c1ccc(CC(=O)Nc2ccc(OC(C)(C)c3ccc(Cl)c(Cl)c3)cc2)cc1 [Example 4, N-(4-{[2-(3,4-Dichlorophenyl)propan-2-yl]oxy}phenyl)-2-[4-(ethylsulfonyl)phenyl]acetamide] | 80.5 | 86.4 | < 50 |
| CCS(=O)(=O)c1ccc(CC(=O)Nc2ccc(OC(C)(C)c3cc(Cl)cc(Cl)c3)cc2)cc1 [Example 5, N-(4-{[2-(3,5-Dichlorophenyl)propan-2-yl]oxy}phenyl)-2-[4-(ethylsulfonyl)phenyl]acetamide] | 58.2 | 66.9 | – |
| CCS(=O)(=O)c1ccc(CC(=O)Nc2ccc(OC(C)(C)c3ccc(Cl)cc3F)cc2)cc1 [Example 6, N-(4-{[2-(4-Chloro-2-fluorophenyl)propan-2-yl]oxy}phenyl)-2-[4-(ethylsulfonyl)phenyl]acetamide] | 77.5 | 83.1 | – |
| CCS(=O)(=O)c1ccc(CC(=O)Nc2ccc(OC(C)(C)c3ccc(Cl)c(F)c3)cc2)cc1 [Example 7, N-{4-[1-(4-Chloro-3-fluoro-phenyl)-1-methyl-ethoxy]-phenyl}-2-(4-ethanesulfonyl-phenyl)-acetamide] | 74.4 | 85.1 | – |
| CCS(=O)(=O)c1ccc(CC(=O)Nc2ccc(OC(C)(C)c3ccc(F)cc3Cl)cc2)cc1 [Example 8, N-(4-{[2-(2-Chloro-4-fluorophenyl)propan-2-yl]oxy}phenyl)-2-[4-(ethylsulfonyl)phenyl]acetamide] | 85 | 87.8 | < 50 |
| CCS(=O)(=O)c1ccc(CC(=O)Nc2ccc(OC(C)(C)c3ccc(C(F)(F)F)cc3)cc2)cc1 [Example 9, 2-[4-(Ethylsulfonyl)phenyl]-N-[4-({2-[4-(trifluoromethyl)phenyl]propan-2-yl}oxy)phenyl]acetamide] | 86.5 | 89 | < 50 |
| CCS(=O)(=O)c1ccc(CC(=O)Nc2ccc(OC(C)(C)c3ccc(C(F)(F)F)c(F)c3)cc2)cc1 [Example 10, 2-(4-Ethanesulfonyl-phenyl)-N-{4-[1-(3-fluoro-4-trifluoromethyl-phenyl)-1-methyl-ethoxy]-phenyl}-acetamide] | 70.9 | 81.5 | – |
| CCS(=O)(=O)c1ccc(CC(=O)Nc2ccc(OC(C)(C)c3ncc(Cl)cc3Cl)cc2)cc1 [Example 11, N-{4-[1-(3,5-Dichloro-pyridin-2-yl)-1-methyl-ethoxy]-phenyl}-2-(4-ethanesulfonyl-phenyl)-acetamide] | 84.3 | 89 | < 50 |
| CCC(CC)(Oc1ccc(NC(=O)Cc2ccc(S(=O)(=O)CC)cc2)cc1)c1ccc(Cl)c(F)c1 [Example 12, N-{4-[1-(4-Chloro-3-fluoro-phenyl)-1-ethyl-propoxy]-phenyl}-2-(4-ethanesulfonyl-phenyl)-acetamide] | 73.9 | 85.4 | 50 to 100 |
| CCC(CC)(Oc1ccc(NC(=O)Cc2ccc(S(=O)(=O)CC)cc2)cc1)c1ccc(F)cc1F [Example 13, N-{4-[1-(2,4-Difluoro-phenyl)-1-ethyl-propoxy]-phenyl}-2-(4-ethanesulfonyl-phenyl)-acetamide] | 56.2 | 68.8 | – |
| CCn1c(C(C)(C)Oc2ccc(NC(=O)Cc3ccc(S(=O)(=O)CC)cc3)cc2)nc2ccc(F)cc21 [Example 14, N-(4-{[2-(1-ethyl-6-fluoro-1H-benzimidazol-2-yl)propan-2-yl]oxy}phenyl)-2-[4-(ethylsulfonyl)phenyl]acetamide] | 88.9 | 93.3 | < 50 |
| CCn1c(C(C)(C)Oc2ccc(NC(=O)Cc3ccc(S(=O)(=O)CC)cc3)cc2)nc2cc(F)ccc21 [Example 15, 2-(4-Ethanesulfonyl-phenyl)-N-{4-[1-(1-ethyl-5-fluoro-1H-benzoimidazol-2-yl)-1-methyl-ethoxy]-phenyl}-acetamide] | 83 | 85.2 | < 50 |
| CCn1c(C(C)(C)Oc2ccc(NC(=O)Cc3ccc(S(=O)(=O)CC)cc3)cc2)nc2cc(Cl)ccc21 [Example 16, N-(4-{[2-(5-Chloro-1-ethyl-1H-benzimidazol-2-yl)propan-2-yl]oxy}phenyl)-2-[4-(ethylsulfonyl)phenyl]acetamide] | 88.6 | 94.3 | < 50 |
| CCn1c(C(C)(C)Oc2ccc(NC(=O)Cc3ccc(S(=O)(=O)CC)cc3)cc2)nc2ccc(Cl)cc21 [Example 17, N-(4-{[2-(6-Chloro-1-ethyl-1H-benzimidazol-2-yl)propan-2-yl]oxy}phenyl)-2-[4-(ethylsulfonyl)phenyl]acetamide] | 88.7 | 94.3 | < 50 |
| CCS(=O)(=O)c1ccc(CC(=O)Nc2ccc(OC(C)(C)c3nc4ccc(Cl)cc4n3C)cc2)cc1 [Example 18, N-{4-[1-(6-Chloro-1-methyl-1H-benzoimidazol-2-yl)-1-methyl-ethoxy]-phenyl}-2-(4-ethanesulfonyl-phenyl)-acetamide] | 78.6 | 91 | > 100 |
| CCn1c(C(C)(C)Oc2ccc(NC(=O)Cc3ccc(S(=O)(=O)CC)cc3)cc2)nc2cccc(Cl)c21 [Example 19, N-(4-{[2-(7-Chloro-1-ethyl-1H-benzimidazol-2-yl)propan-2-yl]oxy}phenyl)-2-[4-(ethylsulfonyl)phenyl]acetamide] | 85.5 | 88.9 | 50 to 100 |
| CCS(=O)(=O)c1ccc(CC(=O)Nc2ccc(OC(C)(C)c3nc4cc(F)ccc4n3C(C)C)cc2)cc1 [Example 20, 2-(4-Ethanesulfonyl-phenyl)-N-{4-[1-(5-fluoro-1-isopropyl-1H-benzoimidazol-2-yl)-1-methyl-ethoxy]-phenyl}-acetamide] | 79.8 | 85.2 | > 100 |
| CCn1c(C(F)(F)Oc2ccc(NC(=O)Cc3ccc(S(=O)(=O)CC)cc3)cc2)nc2cc(Cl)ccc21 [Example 22, N-{4-[(5-Chloro-1-ethyl-1H-benzoimidazol-2-yl)-difluoro-methoxy]-phenyl}-2-(4-ethanesulfonyl-phenyl)-acetamide] | 74.4 | 82.8 | – |
| CCn1c(C2(Oc3ccc(NC(=O)Cc4ccc(S(=O)(=O)CC)cc4)cc3)CC2)nc2ccc(Cl)cc21 [Example 23, N-(4-{[1-(6-Chloro-1-ethyl-1H-benzimidazol-2-yl)cyclopropyl]oxy}phenyl)-2-[4-(ethylsulfonyl)phenyl]acetamide] | 69.6 | 86 | > 100 |
| CCn1c(C2(Oc3ccc(NC(=O)Cc4ccc(S(=O)(=O)CC)cc4)cc3)CC2)nc2cc(Cl)ccc21 [Example 24, N-{4-[1-(5-Chloro-1-ethyl-1H-benzoimidazol-2-yl)-cyclopropoxy]-phenyl}-2-(4-ethanesulfonyl-phenyl)-acetamide] | 65.7 | 85.6 | > 100 |
